Test system: adult human epidermal keratinocytes (aHEK)
Assay: Proliferation of adult human epidermal keratinocytes (aHEK)
Assay type: cell-based
Conditions: 100 ug/ml; vs water (0 μg/ml)
Excerpt: Example 3(e): FIG. 6 depicts the effect of threitol-1 diphosphate on the proliferation of adult human epidermal keratinocytes (aHEK).

SMILES: O=P(O)(O)OP(=O)(O)OC[C@@H](O)[C@H](O)CO [DP sSBD4, threitol-1-diphosphate]
- stimulation of human adult epidermal keratinocyte proliferation: 17%

— patent US8236784B2, “Composition comprising threitol phosphate and salts thereof” (Sunny Biodiscovery, Inc., priority 2007, dated 2012)
